Data taken from ChEMBL document CHEMBL6071191, “Correlating Predicted Reactivities with Experimental Inhibition Data of Covalent ChlaDUB1 Inhibitors” (ACS Med Chem Lett, 2024).

What was measured:
[1] = target: T1, Deubiquitinase and deneddylase Dub1 (Chlamydia trachomatis serovar L2 (strain ATCC VR-902B / DSM 19102 /434/Bu)) (UniProt B0B9A0); assay: Binding affinity to Chlamydia trachomatis DUB1 using Ub-Rh110Gly as substrate assessed as ratio of Kinact/Ki
T1 sequence (whole entry): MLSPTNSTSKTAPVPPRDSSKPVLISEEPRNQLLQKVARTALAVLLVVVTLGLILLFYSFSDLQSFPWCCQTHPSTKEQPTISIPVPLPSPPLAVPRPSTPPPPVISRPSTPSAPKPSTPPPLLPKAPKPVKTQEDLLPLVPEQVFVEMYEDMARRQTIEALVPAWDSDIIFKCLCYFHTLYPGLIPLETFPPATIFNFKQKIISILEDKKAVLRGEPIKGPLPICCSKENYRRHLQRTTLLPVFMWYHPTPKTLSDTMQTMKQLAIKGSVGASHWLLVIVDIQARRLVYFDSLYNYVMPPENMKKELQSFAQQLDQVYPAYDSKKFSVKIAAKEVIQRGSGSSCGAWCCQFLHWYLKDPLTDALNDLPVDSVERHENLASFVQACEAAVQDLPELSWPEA

[2] = Drug metabolism in PBS assessed as pseudo-first-order rate constant of Cysteine at 50 uM incubated for >10 hrs in presence of L-Cysteine by HPLC-UV analysis; type: ADME; conditions: buffer

Row | Ratio [1] [M⁻¹ s⁻¹] | K [2] [h⁻¹] | SMILES
1 | 137 | – | COc1ccccc1CNC(=O)c1ccc(CNC(=O)c2coc(C#N)n2)cc1
2 | 10.7 | – | N#Cc1nccc(C(=O)NCc2ccc(C(=O)NCc3ccccc3)cc2)n1
3 | 0.761 | 0.824 | COc1ccccc1CNC(=O)c1ccc(CNC(=O)[C@@H]2CCN(C#N)C2)cc1
4 | 15.6 | – | COc1ccccc1CNC(=O)c1ccc(CNS(=O)(=O)c2cnc(C#N)nc2)cc1
5 | 1.1 | 0.87 | COc1ccccc1CNC(=O)c1ccc(CNC(=O)[C@H]2CCN(C#N)C2)cc1
6 | 32.2 | – | COc1ccccc1CNC(=O)c1ccc(CNC(=O)c2nc(C#N)ncc2F)cc1
7 | – | 0.151 | COc1ccccc1CNC(=O)c1ccc(CNC(=O)C2CCN(C#N)CC2)cc1
